Assay results reported in ChEMBL document CHEMBL5120864, “Targeting Enhancer of Zeste Homolog 2 for the Treatment of Hematological Malignancies and Solid Tumors: Candidate Structure-Activity Relationships Insights and Evolution Prospects” (J Med Chem, 2022).
≈ marks a conversion by molar mass, not a printed value.

Assays:
[1] = target: T1, Histone-lysine N-methyltransferase EZH2 (Homo sapiens, UniProt Q15910)
NCI-H1299 = assay: cells; type: functional, cell-based; conditions: Homo sapiens
NCI-H1975 = assay: cells; type: functional, cell-based; conditions: Homo sapiens
PC-3 [2] = assay: cells; type: functional, cell-based; conditions: Homo sapiens
A549 = assay: cells; type: functional, cell-based; conditions: Homo sapiens
in vivo = conditions: rat
MDA-MB-231 [3] = assay: cells; type: functional, cell-based; conditions: Homo sapiens, MDA-MB-231, 72 h
cells = type: functional, cell-based; conditions: Homo sapiens, WSU-FSCCL, 48 h
BT-474 = assay: cells; type: functional, cell-based; conditions: Homo sapiens, BT-474, 72 h
[4] = target: T2, Histone-lysine N-methyltransferase EZH1 (Homo sapiens, UniProt Q92800)
T2 sequence (Q92800 whole entry): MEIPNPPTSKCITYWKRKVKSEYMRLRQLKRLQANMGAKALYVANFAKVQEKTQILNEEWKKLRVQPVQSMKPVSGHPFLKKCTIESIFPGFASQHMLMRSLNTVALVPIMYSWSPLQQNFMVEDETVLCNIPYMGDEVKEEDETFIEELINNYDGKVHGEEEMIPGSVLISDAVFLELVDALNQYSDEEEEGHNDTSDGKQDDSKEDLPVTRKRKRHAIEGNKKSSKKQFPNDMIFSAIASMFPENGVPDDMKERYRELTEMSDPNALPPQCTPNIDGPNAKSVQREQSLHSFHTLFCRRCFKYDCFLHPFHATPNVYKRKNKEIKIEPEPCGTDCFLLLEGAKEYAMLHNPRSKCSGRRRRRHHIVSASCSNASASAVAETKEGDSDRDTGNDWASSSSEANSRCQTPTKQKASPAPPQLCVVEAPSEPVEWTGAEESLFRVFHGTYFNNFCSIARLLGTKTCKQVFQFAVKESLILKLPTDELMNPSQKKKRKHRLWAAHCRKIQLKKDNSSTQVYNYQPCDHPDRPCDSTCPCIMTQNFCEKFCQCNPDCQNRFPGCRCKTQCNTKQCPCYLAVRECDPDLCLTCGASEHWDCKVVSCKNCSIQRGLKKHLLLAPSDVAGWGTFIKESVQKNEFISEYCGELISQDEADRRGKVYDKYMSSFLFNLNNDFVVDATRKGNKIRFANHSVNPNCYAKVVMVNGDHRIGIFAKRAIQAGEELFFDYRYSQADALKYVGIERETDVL

HepG2 [5] = type: functional, Homo sapiens; conditions: time 24 hrs
HepG2 [6] = assay: cells; type: functional, cell-based; conditions: Homo sapiens, HepG2, 24 h
MCF7 [7] = assay: cells; type: functional, cell-based; conditions: Homo sapiens, MCF7, 24 h
PC-3 [8] = assay: cells; type: functional, cell-based; conditions: Homo sapiens, PC-3, 24 h
MCF7 [9] = type: functional, Homo sapiens; conditions: time 24 hrs
PC-3 [10] = type: functional, Homo sapiens; conditions: time 24 hrs
HCT-15 = assay: cells; type: functional, cell-based; conditions: Homo sapiens, HCT-15, 96 h
MDA-MB-231 [11] = assay: cells; type: functional, cell-based; conditions: Homo sapiens, MDA-MB-231, 96 h
[12] = target: T1, Histone-lysine N-methyltransferase EZH2; remark: listed apart in the source
[13] = target: T3, Histone-lysine N-methyltransferase EZH2 (Homo sapiens, UniProt Q15910, Y641F)
[14] = target: T2, Histone-lysine N-methyltransferase EZH1; remark: listed apart in the source
SU-DHL-6 = assay: cells; type: functional, cell-based; conditions: Homo sapiens, SU-DHL-6, 96 h
Pfeiffer = assay: cells; type: functional, cell-based; conditions: Homo sapiens, 96 h
physchem = conditions: buffer
[15] = target: T3, Histone-lysine N-methyltransferase EZH2; remark: listed apart in the source
[16] = target: T1, Histone-lysine N-methyltransferase EZH2; remark: listed apart in the source
[17] = target: T1, Histone-lysine N-methyltransferase EZH2; remark: listed apart in the source
[18] = mouse, in vivo
KARPAS-422 [19] = assay: animal or person; type: functional, Homo sapiens; conditions: Mus musculus, route po
[20] = target: T1, Histone-lysine N-methyltransferase EZH2; remark: listed apart in the source
KARPAS-422 [21] = assay: cells; type: functional; conditions: Homo sapiens, time 10-15 day
[22] = target: T2, Histone-lysine N-methyltransferase EZH1; remark: listed apart in the source
MCF7 [23] = assay: cells; type: functional, cell-based; conditions: Homo sapiens, MCF7, 96 h
ZR-75-1 = assay: cells; type: functional, cell-based; conditions: Homo sapiens, ZR-75-1, 96 h

T3 sequence (Q15910 whole entry Y641F): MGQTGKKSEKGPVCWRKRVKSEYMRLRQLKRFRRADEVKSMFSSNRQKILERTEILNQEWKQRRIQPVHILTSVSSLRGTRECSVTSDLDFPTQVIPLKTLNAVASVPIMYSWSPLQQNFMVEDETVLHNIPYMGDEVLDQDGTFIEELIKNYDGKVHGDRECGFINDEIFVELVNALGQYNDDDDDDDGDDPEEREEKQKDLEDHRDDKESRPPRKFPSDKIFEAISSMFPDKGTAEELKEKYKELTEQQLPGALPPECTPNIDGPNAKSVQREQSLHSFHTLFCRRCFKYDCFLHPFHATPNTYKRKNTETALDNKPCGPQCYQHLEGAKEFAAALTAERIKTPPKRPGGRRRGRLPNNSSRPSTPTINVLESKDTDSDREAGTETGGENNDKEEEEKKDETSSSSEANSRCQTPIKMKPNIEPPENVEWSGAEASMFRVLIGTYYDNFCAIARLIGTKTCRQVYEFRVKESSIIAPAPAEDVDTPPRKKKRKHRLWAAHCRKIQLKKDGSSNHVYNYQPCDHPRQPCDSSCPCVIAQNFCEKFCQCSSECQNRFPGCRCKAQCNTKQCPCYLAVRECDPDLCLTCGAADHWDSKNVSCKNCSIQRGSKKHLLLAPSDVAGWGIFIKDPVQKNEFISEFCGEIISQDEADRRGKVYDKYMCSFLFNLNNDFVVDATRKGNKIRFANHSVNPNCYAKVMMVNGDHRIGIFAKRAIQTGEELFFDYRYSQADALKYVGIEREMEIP
T1 sequence (Q15910 whole entry): as the sequence (Q15910 whole entry Y641F) above, with F641Y counted along it

Nc1nccc2c1ncn2[C@@H]1C=C(CO)[C@@H](O)[C@H]1O
IC50 [1]: 80 nM
IC50 (NCI-H1299): 210 nM
IC50 (NCI-H1975): 80 nM
IC50 (PC-3 [2]): 190 nM
IC50 (A549): 240 nM
half-life (in vivo): 1.1 h

COc1cc2nc(N3CCN(C)CC3)nc(NC3CCN(Cc4ccccc4)CC3)c2cc1OC
IC50 (MDA-MB-231 [3]): 4300 nM
IC50 (cells): 3400 nM
IC50 (BT-474): 2100 nM

CCC(CC)n1ccc2c(C(=O)NCc3c(C)cc(C)[nH]c3=O)cc(C#N)cc21
IC50 [4]: 13 nM

COc1ccc(C2SCCC(=O)N2Nc2nc3ccccc3[nH]2)cc1 (configuration not stated)
inhibition (INH) (HepG2 [5]): 64%
IC50 (HepG2 [6]): 8950 nM
IC50 (MCF7 [7]): 16600 nM
IC50 (PC-3 [8]): 27000 nM
inhibition (INH) (MCF7 [9]): 50.8%
inhibition (INH) (PC-3 [10]): 36.7%

COc1cccc2nc(N3CCCN(C)CC3)cc(NC3CCN(C)CC3)c12
IC50 (HCT-15): 7600 nM
IC50 (MDA-MB-231 [11]): 2450 nM

CCN(c1cc(-c2ccc(CN3CCN(C)CC3)cc2)cc(C(=O)NCc2c3c(c(C)[nH]c2=O)CCCC3)c1C)C1CCCCC1
IC50 [12]: 9.8 nM
IC50 [13]: 182 nM
IC50 [14]: 136 nM
IC50 (SU-DHL-6): 2010 nM
IC50 (Pfeiffer): 1430 nM

CCN(c1cc(-c2ccccc2)cc(C(=O)NCc2c3c(c(C)[nH]c2=O)CCCC3)c1C)C1CCOCC1
solubility (physchem): 185 µg/mL (≈ 361 µM)

COc1cc(C)[nH]c(=O)c1CNC(=O)c1c(C)n(C(C)C2CCN(C)C(C(F)(F)F)C2)c2ccccc12 (configuration not stated)
IC50 [15]: < 100 nM
IC50 [16]: < 400000 nM
IC50 [17]: < 100 nM
CL [18]: 55 µL/min/mg

COC1CN([C@H]2CC[C@H]([C@@H](C)c3scc(C(=O)NCc4c(C)cc(C)[nH]c4=O)c3C)CC2)C1
IC50 [15]: 0.93 nM
IC50 [17]: 1.43 nM
inhibition in vivo at 50 mg/kg (KARPAS-422 [19]): 53%

C=CC(=O)Nc1cc(-c2ccc(N3CCNCC3)nc2)cc(C(=O)NCc2c(CC)cc(C)[nH]c2=O)c1C
IC50 [20]: 47 nM

CCN1CCN(c2ccc(-c3cc(C(=O)NCc4c(C)cc(C)[nH]c4=O)c(C)c4c3O[C@](C)(CN3CCOCC3)O4)cn2)CC1
GI50 (KARPAS-422 [21]): 210 nM

CCN(c1cc(-c2ccc(N3CCN(C)CC3)cc2)cc(C(=O)NCc2c3c(c(C)[nH]c2=O)CCCC3)c1C)C1CCOCC1
IC50 [13]: 15 nM
IC50 [22]: 81 nM
IC50 (MCF7 [23]): 990 nM
IC50 (ZR-75-1): 89 nM
